“And” between values parts separate entries of the source, which are not always exact repeats. Equal entries are not always repeated. Inconclusive results and toxic doses are left out.
Tested on: P388 leukemia ip, CD2F1 mice, survival T/C
Assay: NCI In Vivo Anticancer Drug Screen. Data for tumor model P388 Leukemia (intraperitoneal) in CD2F1 (CDF1) mice
Conditions: endpoint: median survival time, higher = longer survival
Method in brief: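 Mice carrying the transplanted tumor received test compound or vehicle. Survival was recorded in each group, and the value is the treated-group measurement divided by that of the vehicle-treated control group.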

[1] = dose: 50.0 mg/kg/injection, schedule: Q01DX005 (ip), vehicle: Klucel (hydroxypropylcellulose) (HPC)
[2] = dose: 100.0 mg/kg/injection, schedule: Q01DX005 (ip), vehicle: Klucel (hydroxypropylcellulose) (HPC)
[3] = dose: 200.0 mg/kg/injection, schedule: Q01DX005 (ip), vehicle: Klucel (hydroxypropylcellulose) (HPC)
[4] = dose: 60.0 mg/kg/injection, schedule: Q01DX005 (ip), vehicle: Klucel (hydroxypropylcellulose) (HPC)
[5] = dose: 120.0 mg/kg/injection, schedule: Q01DX005 (ip), vehicle: Klucel (hydroxypropylcellulose) (HPC)
[6] = dose: 240.0 mg/kg/injection, schedule: Q01DX005 (ip), vehicle: Klucel (hydroxypropylcellulose) (HPC)
[7] = dose: 100.0 mg/kg/injection, schedule: Q01DX009 (ip), vehicle: saline with Tween-80
[8] = dose: 200.0 mg/kg/injection, schedule: Q01DX009 (ip), vehicle: saline with Tween-80
[9] = dose: 400.0 mg/kg/injection, schedule: Q01DX009 (ip), vehicle: saline with Tween-80
[10] = dose: 50.0 mg/kg/injection, schedule: Q01DX005 (ip), vehicle: saline with Tween-80
[11] = dose: 100.0 mg/kg/injection, schedule: Q01DX005 (ip), vehicle: saline with Tween-80
[12] = dose: 200.0 mg/kg/injection, schedule: Q01DX005 (ip), vehicle: saline with Tween-80

With `C=C1C(=O)OC2CC3=CCC(OC3=O)/C(C)=C\CC12` (configuration not stated) the T/C (dose: 21.5 mg/kg/injection, schedule: Q01DX005 (ip), vehicle: Klucel (hydroxypropylcellulose) (HPC)) was 118 % of control, the T/C (dose: 43.0 mg/kg/injection, schedule: Q01DX005 (ip), vehicle: Klucel (hydroxypropylcellulose) (HPC)) was 116 % of control and the T/C (dose: 86.0 mg/kg/injection, schedule: Q01DX005 (ip), vehicle: Klucel (hydroxypropylcellulose) (HPC)) was 108 % of control.
With `NC(=O)N/N=C/Cn1ccc(=O)n(C/C=N/NC(N)=O)c1=O` the T/C [1] was 91 % of control, the T/C [2] was 87 % of control and the T/C [3] was 87 % of control.
With `O=C(Nc1ccc(Cl)cc1)Nc1nnc(/C=C/c2ccccc2)o1` the T/C (dose: 60.0 mg/kg/injection, schedule: Q01DX005 (ip), vehicle: saline with Tween-80) was 96 % of control and the T/C (dose: 120.0 mg/kg/injection, schedule: Q01DX005 (ip), vehicle: saline with Tween-80) was 96 % of control.
`CCCC(=O)OCC1OC(n2cnc3c(=S)nc[nH]c32)C(OC(=O)CCC)C1OC(=O)CCC` (configuration not stated) was tested, and the T/C (dose: 6.25 mg/kg/injection, schedule: Q01DX009 (ip), vehicle: saline with Tween-80) was 116 % of control, the T/C (dose: 12.5 mg/kg/injection, schedule: Q01DX009 (ip), vehicle: saline with Tween-80) was 112 % of control and the T/C (dose: 25.0 mg/kg/injection, schedule: Q01DX009 (ip), vehicle: saline with Tween-80) was 112 % of control. The T/C (dose: 50.0 mg/kg/injection, schedule: Q01DX009 (ip), vehicle: saline with Tween-80) was 116 % of control.
`NC(=O)CC(NC(=O)OCC1c2ccccc2-c2ccccc21)C(=O)O` (configuration not stated) was tested, and the T/C (dose: 12.5 mg/kg/injection, schedule: Q01DX005 (ip), vehicle: Klucel (hydroxypropylcellulose) (HPC)) was 92 % of control, the T/C (dose: 25.0 mg/kg/injection, schedule: Q01DX005 (ip), vehicle: Klucel (hydroxypropylcellulose) (HPC)) was 100 % of control and the T/C [1] was 100 % of control and 105 % of control.
With `CCOC(=O)C1OC(C2(C)OC3(OC4(C=CC3O)OC(C(C)C(=O)C(C)C(O)C(C)CC(C)c3c(Cl)cc(C)c(O)c3C(=O)O)C(C)CC4C)C(C)C2OC)CC1O` (configuration not stated) the T/C (dose: 1.25 mg/kg/injection, schedule: Q01DX005 (ip), vehicle: Klucel (hydroxypropylcellulose) (HPC)) was 107 % of control and the T/C (dose: 2.5 mg/kg/injection, schedule: Q01DX005 (ip), vehicle: Klucel (hydroxypropylcellulose) (HPC)) was 100 % of control.
With `Cc1ccc(C(=O)NC2C(=O)NC(C(C)C)C(=O)N3CCCC3C(=O)N(C)CC(=O)N(C)C(C(C)C)C(=O)OC2C)c2c1Oc1c(c(C(=O)NC3C(=O)NC(C(C)C)C(=O)N4CCCC4C(=O)N(C)CC(=O)N(C)C(C(C)C)C(=O)OC3C)c3nc(-c4ccccc4)c(=O)oc3c1C)N2` (configuration not stated) the T/C (dose: 0.13 mg/kg/injection, schedule: Q01DX005 (ip), vehicle: water) was 168 % of control, the T/C (dose: 0.25 mg/kg/injection, schedule: Q01DX005 (ip), vehicle: water) was 181 % of control and 240 % of control and the T/C (dose: 1.0 mg/kg/injection, schedule: Q01DX005 (ip), vehicle: water) was 246 % of control.
With `CC1CC2C(=S)NC(=O)C(c3ccccc3)=C2O1` (configuration not stated) the T/C (dose: 50.0 mg/kg/injection, schedule: Q01DX009 (ip), vehicle: Klucel (hydroxypropylcellulose) (HPC)) was 107 % of control, the T/C (dose: 100.0 mg/kg/injection, schedule: Q01DX009 (ip), vehicle: Klucel (hydroxypropylcellulose) (HPC)) was 103 % of control and the T/C (dose: 200.0 mg/kg/injection, schedule: Q01DX009 (ip), vehicle: Klucel (hydroxypropylcellulose) (HPC)) was 100 % of control.
For `COC(=O)c1cccc2c(Br)cc3ccccc3c12`, the T/C (dose: 150.0 mg/kg/injection, schedule: Q04DX003 (ip), vehicle: Klucel (hydroxypropylcellulose) (HPC)) was 95 % of control and the T/C (dose: 300.0 mg/kg/injection, schedule: Q04DX003 (ip), vehicle: Klucel (hydroxypropylcellulose) (HPC)) was 91 % of control.
With `COc1cc(/C=C/C(=O)c2ccc(Nc3ccnc4cc(Cl)ccc34)cc2)cc(OC)c1OC` the T/C (dose: 100.0 mg/kg/injection, schedule: Q01DX001 (ip), vehicle: saline with Tween-80) was 102 % of control, the T/C (dose: 200.0 mg/kg/injection, schedule: Q01DX001 (ip), vehicle: saline with Tween-80) was 97 % of control and the T/C (dose: 400.0 mg/kg/injection, schedule: Q01DX001 (ip), vehicle: saline with Tween-80) was 93 % of control.
For `C[n+]1ccc(CC(Cc2cc[n+](C)cc2)c2ccc(Br)cc2)cc1`, the T/C (dose: 6.25 mg/kg/injection, schedule: Q01DX009 (ip), vehicle: Klucel (hydroxypropylcellulose) (HPC)) was 110 % of control, the T/C (dose: 12.5 mg/kg/injection, schedule: Q01DX009 (ip), vehicle: Klucel (hydroxypropylcellulose) (HPC)) was 110 % of control and the T/C (dose: 25.0 mg/kg/injection, schedule: Q01DX009 (ip), vehicle: Klucel (hydroxypropylcellulose) (HPC)) was 108 % of control.
`COC(=O)/C=C/c1cc(=O)nc2sc3ccccc3n12` was tested, and the T/C [4] was 93 % of control, the T/C [5] was 93 % of control and the T/C [6] was 94 % of control.
For `CC(N)C(=O)NC(C)C(=O)NC(C)C(=O)O` (configuration not stated), the T/C [1] was 104 % of control, the T/C [2] was 106 % of control and the T/C [3] was 101 % of control.
In the case of `CON1C(=O)c2ccccc2C1=O`, the T/C [7] was 99 % of control, the T/C [8] was 106 % of control and the T/C [9] was 106 % of control.
In the case of `O=c1[nH]cnc2nc(SCc3ccc([N+](=O)[O-])cc3)[nH]c12`, the T/C [4] was 105 % of control, the T/C [5] was 102 % of control and the T/C [6] was 108 % of control.
`CCOC(=O)C(NC(=O)C(Cl)Cl)C(O)c1ccccc1` (configuration not stated) was tested, and the T/C [10] was 100 % of control, the T/C [11] was 100 % of control and the T/C [12] was 89 % of control.
With `O=S(=O)(Nc1ccc(Br)cc1)c1ccccc1` the T/C [7] was 100 % of control, the T/C (dose: 100.0 mg/kg/injection, schedule: Q04DX003 (ip), vehicle: saline with Tween-80) was 100 % of control and the T/C [8] was 90 % of control. For the same compound, the T/C (dose: 200.0 mg/kg/injection, schedule: Q04DX003 (ip), vehicle: saline with Tween-80) was 95 % of control, the T/C [9] was 100 % of control and the T/C (dose: 400.0 mg/kg/injection, schedule: Q04DX003 (ip), vehicle: saline with Tween-80) was 91 % of control.
With `CC(=O)Nc1cc(N)c2c(c1)CCCC2=O` the T/C [4] was 97 % of control, the T/C [5] was 96 % of control and the T/C [6] was 90 % of control.
With `O=C(O)c1[nH]c(=O)[nH]c(=O)c1F` the T/C (dose: 2.5 mg/kg/injection, schedule: Q01DX010 (ip), vehicle: saline) was 110 % of control, the T/C (dose: 5.0 mg/kg/injection, schedule: Q01DX010 (ip), vehicle: saline) was 160 % of control and the T/C (dose: 16.0 mg/kg/injection, schedule: Q01DX009 (ip), vehicle: saline) was 100 % of control.
With `N#C/C(=N\NC(=O)c1cccs1)c1ccccc1Cl` the T/C [10] was 93 % of control, the T/C [11] was 103 % of control and the T/C [12] was 106 % of control.
With `Nc1cc(=O)[nH]c(=S)[nH]1.[Pd]` the T/C (dose: 12.5 mg/kg/injection, schedule: Q01DX009 (ip), vehicle: distilled water + Tween-80) was 108 % of control, the T/C (dose: 25.0 mg/kg/injection, schedule: Q01DX009 (ip), vehicle: distilled water + Tween-80) was 97 % of control and the T/C (dose: 50.0 mg/kg/injection, schedule: Q01DX009 (ip), vehicle: distilled water + Tween-80) was 100 % of control. The T/C (dose: 100.0 mg/kg/injection, schedule: Q01DX009 (ip), vehicle: distilled water + Tween-80) was 95 % of control and the T/C (dose: 200.0 mg/kg/injection, schedule: Q01DX009 (ip), vehicle: distilled water + Tween-80) was 105 % of control.
In the case of `CCCCNC(=S)N/N=C1/C=C2C=CC3C(CCC4(C)C(OC(C)=O)CCC34)C2(C)CC1` (configuration not stated), the T/C (dose: 100.0 mg/kg/injection, schedule: Q01DX001 (ip), vehicle: saline) was 99 % of control, the T/C (dose: 200.0 mg/kg/injection, schedule: Q01DX001 (ip), vehicle: saline) was 98 % of control and the T/C (dose: 400.0 mg/kg/injection, schedule: Q01DX001 (ip), vehicle: saline) was 97 % of control.
With `C=CCOc1ccc(-c2ccccc2)cc1Br` the T/C [1] was 108 % of control, the T/C [2] was 102 % of control and the T/C [3] was 100 % of control.
For `O=c1[nH]oc(=O)[nH]1`, the T/C (dose: 6.25 mg/kg/injection, schedule: Q01DX005 (ip), vehicle: saline) was 95 % of control, the T/C (dose: 12.5 mg/kg/injection, schedule: Q01DX005 (ip), vehicle: saline) was 97 % of control and the T/C (dose: 25.0 mg/kg/injection, schedule: Q01DX005 (ip), vehicle: saline) was 94 % of control. For the same compound, the T/C (dose: 50.0 mg/kg/injection, schedule: Q01DX005 (ip), vehicle: saline) was 100 % of control and 91 % of control and the T/C (dose: 200.0 mg/kg/injection, schedule: Q01DX005 (ip), vehicle: saline) was 100 % of control.

Reference: PubChem BioAssay AID330 (DTP/NCI, 2004)
